In US4542027A, “Laidlomycin phenylcarbamate” (Syntex (U.S.A.) Inc., priority 1984, dated 1985):
Where two headings read alike, the source gives them in different places. One block for each compound: values may come before it.

What was measured:
[1] = Stability in soybean millrun feed premix at 60° C.; type: physicochemical; details: soybean millrun feed premix; 60° C., one week, soybean millrun premix, 10% (w/w)
Protocol: These materials were then stored at 60° C. and analyzed for starting material at one week. The premix composition is given in Table 5 and the stability data in Table 6.

[2] = Stability at 60° C. in methanol-water, acetate buffer; type: physicochemical; details: methanol-water, acetate buffer
Protocol: Laidlomycin phenylcarbamate, laidlomycin isopopylcarbamate and two laidlomycin esters were prepared and their relative stability at 60° C. methanol-water, acetate buffer was determined. A complete list of the esters and carbamates which were tested under these conditions follows: […]

rumen fluid [3] = assay: Propionic acid production (VFA) in in vitro rumen fluid fermentation; type: cell-based, steer; design: Propionic acid production rate: unit not given here; details: 9 h
Protocol: (§1) Two separate fermentation models were used to evaluate effects of laidlomycin and laidlomycin phenylcarbamate upon volatile fatty acids (VFA) and lactic acid production. Test compounds were solubilized in absolute ethanol at concentrations of 1 mg/ml and were serially diluted twofold in absolute ethanol through six additional concentrations. Aliquots of 200 μl were transferred to 18×150 mm test tubes, which were used as incubation vessels, and the ethanol was evaporated.
(§2) For both fermentation models rumen fluid from a rumen-fistulated steer, consuming a 100% alfalfa hay diet, was obtained before the morning feeding. The fluid was strained through four layers of cheesecloth, mixed with an equal volume of CO2 -saturated buffer, and 10 ml was transferred to each of the incubation vessels. All tubes were fitted with gas-release stoppers under an atmosphere of CO2 and were incubated in a shaking waterbath at 39° C. […] This medium, designed to be microbiologically nonselective, encouraged VFA production with no accumulation of lactic acid. Buffer used to study lactic acid accumulation (table 1) contained 150 mmol of glucose/liter and had little buffering capacity. This medium favored growth of lactic acid-producing bacteria and allowed rapid production of lactic acid coupled with a precipitous drop in pH from pH 6.2 to less than pH 5 during the course of an incubation.
(§3) Fermentation was terminated at 9 h for the VFA fermentations and at 5.5 h for the lactic acid fermentations by addition of 2 ml of 25% metaphosphoric acid to the incubation tubes. Aliquots were frozen overnight, thawed, centrifuged at 30,000 × g for 10 min and the resulting supernatants analyzed for either L(+)-lactic acid or VFA. The L(+)-lactic acid was analyzed via a specific enzymatic assay in which the concentration of lactic acid in the fermentation broth was quantified by the increase in absorbance of light at 340 nm when nicotinamide adenine dinucleotide was reduced by lactic acid with the aid of L(+)-lactic dehydrogenase. VFA were analyzed via gas chromatography using a Varian chromatograph equipped with a flame ionization detector. Acids were separated on a glass column (0.64×182.9 cm) packed with 10% SP-1200/1% H3 PO4 on Chromosorb-WAW®, 80-100 mesh. This column was obtained pre-packed from Supelco, Inc., Bellefont, Pennsylvania. Chromatographic conditions included a column temperature of 145° C., an injector temperature of 190° C., a detector temperature of 190° C., a carrier gas flow of 45 ml/min and an injection volume of 1 μl.
(§4) Net production rates of all acids were calculated by subtracting the concentration of acids in the incubation fluid before incubation from the concentration determined in each tube after incubation. Molar proportions of acetic, propionic, and butyric acids produced were calculated by dividing the production rate of individual acids by the sum of the production rates of the three acids. Data were analyzed by analysis of variance (SAS, 1979). Comparisons (Duncan's multiple range test) of individual means were made when treatment effects (P<0.05) were indicated.

rumen fluid [4] = assay: L(+)-Lactic acid production in in vitro rumen fluid fermentation; type: cell-based, steer; design: Lactic acid production rate: unit not given here; details: 5.5 h
Protocol: as §1, §2, §3, §4

Gram positive bacteria = details: Journal of Antibiotics 1974, 1976; cited from earlier work
[5] = U.S. Pat. No. 3,794,732; cited from earlier work

Compound: CCC(=O)OC(C(C)C(=O)O)C(C)C1OC2(CCC(C)(C3CCC(C)(C4OC(C5OC(O)(COC(=O)C(C)C)C(C)CC5C)CC4C)O3)O2)CC(O)C1C (stereo not shown) [Laidlomycin isobutyrate, reference compound]
remaining at 168 h [1]: 70%

Compound: CCC(=O)OCC1(O)OC(C2CC(C)C(C3(C)CCC(C4(C)CCC5(CC(O)C(C)C(C(C)C(OC(=O)CC)C(C)C(=O)O)O5)O4)O3)O2)C(C)CC1C (stereo not shown) [Laidlomycin propionate, reference compound]
half-life ([2]; 60° C., read-out: t1/2 (converted)): 11.1 h
remaining at 168 h [1]: 59%

Compound: CCC(=O)OC(C(C)C(=O)O)C(C)C1OC2(CCC(C)(C3CCC(C)(C4OC(C5OC(O)(CO)C(C)CC5C)CC4C)O3)O2)CC(O)C1C (stereo not shown) [Laidlomycin, laidlomycin]
Propionic acid production rate (rumen fluid [3]; 0.31 μg/ml): 21.1
Propionic acid production rate (rumen fluid [3]; 1.25 μg/ml): 20.9
Propionic acid production rate (rumen fluid [3]; 2.50 μg/ml): 21.8
Propionic acid production rate (rumen fluid [3]; 5.00 μg/ml): 22.2
Propionic acid production rate (rumen fluid [3]; 10.00 μg/ml): 23.1
Propionic acid production, percentage of control (rumen fluid [3]; 10.00 μg/ml): 108 % of control
Propionic acid production rate (rumen fluid [3]; 20.00 μg/ml): 23.2
Propionic acid production, percentage of control (rumen fluid [3]; 20.00 μg/ml): 109 % of control
activity at 0.31 µg/mL (rumen fluid [3]; 0.31 μg/ml, read-out: Propionic acid production, percentage of control): 99%
activity at 1.25 µg/mL (rumen fluid [3]; 1.25 μg/ml, read-out: Propionic acid production, percentage of control): 98%
activity at 2.5 µg/mL (rumen fluid [3]; 2.50 μg/ml, read-out: Propionic acid production, percentage of control): 102%
activity at 5 µg/mL (rumen fluid [3]; 5.00 μg/ml, read-out: Propionic acid production, percentage of control): 104%
activity at 10 µg/mL (rumen fluid [3]; 10.00 μg/ml, read-out: Propionic acid production, percentage of control): 108%
activity at 20 µg/mL (rumen fluid [3]; 20.00 μg/ml, read-out: Propionic acid production, percentage of control): 109%
activity at 0.62 µg/mL (rumen fluid [3]; read-out: Propionic acid production, percentage of control, 0.62 μg/ml, 9 h): 98%
Lactic acid production rate (rumen fluid [4]; 0.31 μg/ml): 28.3
activity at 0.31 µg/mL (rumen fluid [4]; 0.31 μg/ml, read-out: Lactic acid production, percentage of control): 101%
Lactic acid production rate (rumen fluid [4]; 0.62 μg/ml): 30.7
activity at 0.62 µg/mL (rumen fluid [4]; 0.62 μg/ml, read-out: Lactic acid production, percentage of control): 110%
Lactic acid production rate (rumen fluid [4]; 1.25 μg/ml): 26.4
activity at 1.25 µg/mL (rumen fluid [4]; 1.25 μg/ml, read-out: Lactic acid production, percentage of control): 94%
Lactic acid production rate (rumen fluid [4]; 2.50 μg/ml): 32.0
activity at 2.5 µg/mL (rumen fluid [4]; 2.50 μg/ml, read-out: Lactic acid production, percentage of control): 115%
Lactic acid production rate (rumen fluid [4]; 5.00 μg/ml): 26.5
activity at 5 µg/mL (rumen fluid [4]; 5.00 μg/ml, read-out: Lactic acid production, percentage of control): 95%
Lactic acid production rate (rumen fluid [4]; 10.00 μg/ml): 21.6
activity at 10 µg/mL (rumen fluid [4]; 10.00 μg/ml, read-out: Lactic acid production, percentage of control): 77%
Lactic acid production rate (rumen fluid [4]; 20.00 μg/ml): 22.7
Lactic acid production, percentage of control (rumen fluid [4]; 20.00 μg/ml): 81 % of control
activity at 20 µg/mL (rumen fluid [4]; 20.00 μg/ml, read-out: Lactic acid production, percentage of control): 81%
Growth inhibition of Gram positive bacteria (Gram positive bacteria): inhibits the growth of Gram positive bacteria

Compound: CC[C@@]1([C@@H]2O[C@@H]([C@H]3O[C@@](O)(CO)[C@H](C)C[C@@H]3C)C[C@@H]2C)CC[C@H]([C@]2(C)CC[C@]3(C[C@H](O)[C@@H](C)[C@@H]([C@@H](C)[C@@H](OC)[C@H](C)C(=O)O)O3)O2)O1 [Monensin]
Increasing feed utilization in ruminants [5]: useful in increasing feed utilization in ruminants

half-life [2]: 22.3 h
Compound: CCCC(=O)O [butyrate]

Compound: laidlomycin isopopylcarbamate [isopropylcarbamate]
t1/2 ([2]; 60° C.): 501.8 h
